In ChEMBL document CHEMBL1143392, “Synthesis and cyclooxygenase inhibition of various (aryl-1,2,3-triazole-1-yl)-methanesulfonylphenyl derivatives” (Bioorg Med Chem, 2009):

Key:
[1] = target: Prostaglandin G/H synthase 1 (Homo sapiens, UniProt P23219); assay: Inhibition of COX1 by enzyme immunoassay
[2] = Selectivity index, ratio of IC50 for COX1 to IC50 COX2
[3] = target: T1, Prostaglandin G/H synthase 2 (Homo sapiens, UniProt P35354); assay: Inhibition of COX2 by enzyme immunoassay
T1 sequence (P35354 whole entry): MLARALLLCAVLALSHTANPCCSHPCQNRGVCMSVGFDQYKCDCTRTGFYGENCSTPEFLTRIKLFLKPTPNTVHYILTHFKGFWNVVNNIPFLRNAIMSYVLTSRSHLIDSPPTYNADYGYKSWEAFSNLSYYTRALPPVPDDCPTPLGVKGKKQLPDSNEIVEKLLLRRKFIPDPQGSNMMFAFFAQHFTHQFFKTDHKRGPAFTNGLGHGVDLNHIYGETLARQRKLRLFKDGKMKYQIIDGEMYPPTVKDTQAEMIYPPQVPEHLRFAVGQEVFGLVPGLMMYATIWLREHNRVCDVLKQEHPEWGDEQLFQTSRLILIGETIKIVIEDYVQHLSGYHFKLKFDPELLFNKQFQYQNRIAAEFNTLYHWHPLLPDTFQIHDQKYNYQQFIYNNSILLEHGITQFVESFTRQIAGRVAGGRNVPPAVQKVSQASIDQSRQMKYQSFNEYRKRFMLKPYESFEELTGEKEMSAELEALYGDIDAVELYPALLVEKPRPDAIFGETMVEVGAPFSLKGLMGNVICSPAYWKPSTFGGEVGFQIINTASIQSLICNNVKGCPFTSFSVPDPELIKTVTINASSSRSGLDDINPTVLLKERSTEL

Chain of Prostaglandin G/H synthase 1 (P23219 whole entry): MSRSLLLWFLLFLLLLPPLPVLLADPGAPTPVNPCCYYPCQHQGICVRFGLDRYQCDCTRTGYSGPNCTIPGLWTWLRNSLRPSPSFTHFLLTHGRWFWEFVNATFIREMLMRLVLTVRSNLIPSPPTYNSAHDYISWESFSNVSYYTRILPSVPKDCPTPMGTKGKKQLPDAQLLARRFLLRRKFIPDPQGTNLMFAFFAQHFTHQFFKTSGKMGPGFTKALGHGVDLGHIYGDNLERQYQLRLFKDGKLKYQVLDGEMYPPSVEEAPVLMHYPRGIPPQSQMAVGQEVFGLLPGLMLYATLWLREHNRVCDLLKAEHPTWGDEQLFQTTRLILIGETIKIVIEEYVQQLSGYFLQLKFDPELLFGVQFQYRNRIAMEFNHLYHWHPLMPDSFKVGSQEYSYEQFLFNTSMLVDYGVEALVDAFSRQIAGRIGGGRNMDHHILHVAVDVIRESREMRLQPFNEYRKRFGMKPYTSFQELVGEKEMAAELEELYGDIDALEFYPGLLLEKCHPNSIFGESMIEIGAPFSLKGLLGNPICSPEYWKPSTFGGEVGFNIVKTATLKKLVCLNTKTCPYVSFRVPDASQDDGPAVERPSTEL

CS(=O)(=O)c1ccc(-n2cc(-c3ccc(Cl)cc3)nn2)cc1
IC50 [1]: 12200 nM
Ratio IC50 [2]: 64
IC50 [3]: 190 nM

COc1ccc(-c2cnnn2-c2ccc(S(C)(=O)=O)cc2)cc1
IC50 [1]: 830 nM
Ratio IC50 [2]: 4.9
IC50 [3]: 170 nM

CS(=O)(=O)c1ccc(-n2nncc2-c2ccc(F)cc2)cc1
IC50 [1]: 910 nM
Ratio IC50 [2]: 30.3
IC50 [3]: 30 nM

CS(=O)(=O)c1ccc(-n2nncc2-c2ccccc2)cc1
IC50 [1]: 810 nM
Ratio IC50 [2]: 7.5
IC50 [3]: 110 nM

Cc1ccc(-c2cnnn2-c2ccc(S(C)(=O)=O)cc2)cc1
IC50 [1]: 780 nM
Ratio IC50 [2]: 6.5
IC50 [3]: 120 nM

CS(=O)(=O)c1ccc(-n2nncc2-c2ccc(Cl)cc2)cc1
IC50 [1]: 700 nM
Ratio IC50 [2]: 17.5
IC50 [3]: 40 nM

CN(C)c1ccc(-c2cnnn2-c2ccc(S(C)(=O)=O)cc2)cc1
IC50 [1]: 840 nM
Ratio IC50 [2]: 2.3
IC50 [3]: 360 nM

Cc1ccc(-c2cn(-c3ccc(S(C)(=O)=O)cc3)nn2)cc1
IC50 [1]: 45000 nM
Ratio IC50 [2]: 18
IC50 [3]: 2500 nM

COc1ccc(-c2cn(-c3ccc(S(C)(=O)=O)cc3)nn2)cc1
IC50 [1]: 10000 nM
Ratio IC50 [2]: 4
IC50 [3]: 2500 nM

CN(C)c1ccc(-c2cn(-c3ccc(S(C)(=O)=O)cc3)nn2)cc1
IC50 [1]: > 100000 nM
IC50 [3]: > 10000 nM

CS(=O)(=O)c1ccc(-n2cc(-c3ccccc3)nn2)cc1
IC50 [1]: 20800 nM
Ratio IC50 [2]: 139
IC50 [3]: 150 nM

COc1ccc(C2=C(c3ccc(S(C)(=O)=O)cc3)CCC2)cc1
IC50 [1]: 5000 nM

CS(=O)(=O)c1ccc(-n2cc(-c3ccc(F)cc3)nn2)cc1
IC50 [1]: 12500 nM
Ratio IC50 [2]: 59
IC50 [3]: 210 nM
